In brackets after ≈: the same amount, converted by molar mass. Activity calls are given as the source filed them. The calls are words filed in the database; no cut-off is given here.
Assays:
Rhodotorula glutinis = experiment: Antimicrobial activity against Rhodotorula glutinis DSM 10134 by serial dilution assay; type: functional, organism-based
Bacillus subtilis = experiment: Antimicrobial activity against Bacillus subtilis DSM 10 by serial dilution assay; type: functional
Staphylococcus aureus = experiment: Antimicrobial activity against Staphylococcus aureus DSM346 by serial dilution assay; type: functional
Micrococcus luteus = experiment: Antimicrobial activity against Micrococcus luteus DSM 1790 by serial dilution assay; type: functional
Escherichia coli = experiment: Antimicrobial activity against Escherichia coli harboring TolC mutant by serial dilution assay; type: functional
KB 3-1 = experiment: Cytotoxicity against human KB3-1 cells by MTT assay; type: functional, cell-based
MCF7 = experiment: Cytotoxicity against human MCF7 cells by MTT assay; type: functional, cell-based
L929 = experiment: Cytotoxicity against mouse L929 cells by MTT assay; type: cell-based
A-431 = experiment: Cytotoxicity against human A431 cells by MTT assay; type: functional, cell-based
Mucor plumbeus = experiment: Antimicrobial activity against Mucor plumbeus MUCL49355 by serial dilution assay; type: functional

`Cc1cc(C2=C(C(C)C)CC[C@H]2C)oc(=O)c1O` was tested, and the Activity (Rhodotorula glutinis) was “Active”, the MIC (Bacillus subtilis) was 33.3 to 66.7 µg/mL (≈ 134 to 269 µM) and the MIC (Staphylococcus aureus) was 33.3 to 66.7 µg/mL (≈ 134 to 269 µM). It also gave an MIC (Micrococcus luteus) of 33.3 to 66.7 µg/mL (≈ 134 to 269 µM), an MIC (Escherichia coli) of 33.3 to 66.7 µg/mL (≈ 134 to 269 µM) and an IC50 (KB 3-1) of 2900 nM. The IC50 (MCF7) was 9.3 µM, the IC50 (L929) was 5.6 µM and the IC50 (A-431) was 12 µM.
For `Cc1cc([C@]23OC[C@@H](C)[C@H]2CC[C@H]3C)oc(=O)c1O`, the Activity (Rhodotorula glutinis) was “Active”.
`CC1=C(O)C(=O)[C@]23C(=O)[C@H]1[C@H](O)[C@@H](C)[C@H]2CC[C@H]3C` was tested, and the Activity (Rhodotorula glutinis) was “Active”.
For `CC1=CC(=O)[C@]2(C1=O)[C@H](C)CC[C@@H]2[C@H](C)CO`, the Activity (Rhodotorula glutinis) was “Active”.
In the case of `CC1=C/C(=C2/[C@H](C)CC[C@@H]2[C@H](C)CO)OC1=O`, the Activity (Rhodotorula glutinis) is reported as “Active” and the MIC (Mucor plumbeus) is reported as 8.3 µg/mL (≈ 35.1 µM).
In the case of `CC1=C/C(=C2/[C@H](C)CC[C@@H]2C(C)C)OC1=O`, the Activity (Rhodotorula glutinis) is reported as “Active”, the MIC (Mucor plumbeus) is reported as 8.3 µg/mL (≈ 37.7 µM) and the MIC (Bacillus subtilis) is reported as 33.3 to 66.7 µg/mL (≈ 151 to 303 µM). The MIC (Staphylococcus aureus) was 33.3 to 66.7 µg/mL (≈ 151 to 303 µM), the MIC (Micrococcus luteus) was 33.3 to 66.7 µg/mL (≈ 151 to 303 µM) and the MIC (Escherichia coli) was 33.3 to 66.7 µg/mL (≈ 151 to 303 µM).
For `CC1=C/C(=C2\[C@H](C)CC[C@@H]2[C@H](C)CO)OC1=O`, the Activity (Rhodotorula glutinis) was “Active”.
